{"source": "patent US7288659B2", "about": "“Acylaminothiazole derivatives, their preparation and therapeutic use” (Sanofi-Aventis, priority 2001, dated 2007)"}
{"smiles": "CC(NC(=O)Cc1cc(F)cc(F)c1)C(=O)Nc1ncc(-c2ccccc2COCC2CCCCC2)s1", "note": "(stereo not shown) [compound 8, N-(5-{2-[(cyclohexylmethoxy)methyl]phenyl}-1,3-thiazol-2-yl)-2-{[2-(3,5-difluorophenyl)acetyl]amino}-propanamide]", "values": [{"measurement": "melting point", "value": 143, "unit": "°C"}]}
{"smiles": "CC[C@H](NC(=O)Cc1cc(F)cc(F)c1)C(=O)Nc1ncc(-c2ccccc2COC2CCCCC2)s1", "note": "[compound 32, (2S)-N-(5-{2-[(cyclohexyloxy)methyl]phenyl}-1,3-thiazol-2-yl)-2-{[2-(3,5-difluorophenyl)acetyl]amino}-butanamide]", "values": [{"measurement": "melting point", "value": 68, "unit": "°C"}]}
{"smiles": "COc1cc(CC(=O)N[C@@H](C)C(=O)Nc2ncc(-c3ccccc3COC3CCCCC3)s2)cc(OC)c1", "note": "[compound 35, (2S)-N-(5-{2-[(cyclohexyloxy)methyl]phenyl}-1,3-thiazol-2-yl)-2-{[2-(3,5-dimethoxyphenyl)acetyl]amino}-propanamide]", "values": [{"measurement": "melting point", "value": 73, "unit": "°C"}]}
{"smiles": "CCC[C@H](NC(=O)C(F)c1cc(F)cc(F)c1)C(=O)Nc1ncc(-c2ccccc2COC2CCCCC2)s1", "note": "(stereo partly drawn) [compound 64, (2S)-N-(5-{2-[(cyclohexyloxy)methyl]phenyl}-1,3-thiazol-2-yl)-2-{[2-(3,5-difluorophenyl)-2-fluoroacetyl]amino}pentanamide]", "values": [{"measurement": "melting point", "value": 139, "unit": "°C"}]}
